Measurements taken from patent US7531555B2, “Compositions and methods for selective inhibition of nicotine acetylcholine receptors” (University of Florida Research Foundation, Inc., priority 2003, dated 2009).

Test system: mice
Test: Tail-flick test, blockade of nicotine-induced antinociception
Format: in vivo
Description: Animals. Male ICR mice (20-25 g) obtained from Harlan Laboratories (Indianapolis, Ind.) were used throughout the study. Animals were housed in groups of six and had free access to food and water. Adult, male Long-Evans rats (350-460 g), obtained from Harlan (Dublin, Va.), were individually housed in a temperature-controlled (20-22° C.) environment with a 12-hour light-dark cycle (lights on at 7 a.m.). Rats were maintained within the indicated weight range by restricted post-session feeding and had ad libitum water in their home cages. Rats were drug-naive at the beginning of the study. Animals were housed in an AALAC approved facility and the study was approved by the Institutional Animal Care and Use Committee of Virginia Commonwealth University.
1. Tail-flick test. Antinociception was assessed by the tail-flick method of D'Amour and Smith (D'Amour and Smith J. P. E. T., 1941, 72:74-79) as modified by Dewey et al. (Dewey et al. J Pharmacol Exp Ther, 1970, 175:435-442). Briefly, mice were lightly restrained while a radiant heat source was shone onto the upper portion of the tail. Latency to remove the tail from the heat source was recorded for each animal. A control response (2-4 seconds) was determined for each mouse before treatment, and a test latency was determined after drug administration. In order to minimize tissue damage, a maximum latency of 10 seconds was imposed. Antinociceptive response was calculated as percent maximum possible effect (% MPE), where % MPE=[(test-control)/(10-control)]×100.
2. Hot-plate Test. […] Two control latencies at least 10 minutes apart were determined for each mouse. […] Antinociceptive response was calculated as percent maximum possible effect (% MPE), where % MPE=[(test-control)/(40-control)×100]. The reaction time was scored when the animal jumped or licked its paws. […]
The doses of nicotine used in the different tests represent approximately an ED84 (Effective dose 84%) which were determined from previous works (Damaj et al. Psychopharmacology (Berl), 1995, 117:67-73). […]

Compound: CCCCCCC(=O)OC1CC(C)(C)NC(C)(C)C1 [TMPH, 2,2,6,6-tetramethylpiperidin-4-yl heptanoate]
- duration of TMPH effect, tail-flick (TMPH 5 mg/kg s.c., still significantly different from control): at least 4 hours
- time at which nicotine's effect started to recover, tail-flick (pretreatment with TMPH 5 mg/kg): ≤ 60 min
- antinociception by TMPH itself, tail-flick (s.c. injection, at the indicated doses and times): did not cause antinociception
